Here are results for two molecules from ChEMBL document CHEMBL4842391, “Discovery and Nanosized Preparations of (S,R)-Tylophorine Malate as Novel anti-SARS-CoV-2 Agents” (ACS Med Chem Lett, 2021).

The nature of data set [1]: Safety index, ratio of CC50 for African green monkey Vero cells to EC50 for antiviral activity against SARS-CoV-2 C-Tan-nCoV Wuhan strain 01 infected in African green monkey Vero cells. To be noted: read-out: Ratio CC50/EC50. It counts as toxicity.
Data set [2] can be described thus: Toxicity in Hamster rat infected with SARS-CoV-2 C-Tan-nCoV Wuhan strain 01 assessed as body weight loss at 5 mg/kg, inh measured after 4 days. In kind it is organism-based. The following applies: in vivo, inhaled_or_intranasal, 96 h, time 4 day.
Data set [3] is described as follows: Cytotoxicity against African green monkey Vero cells. In kind it is cell-based. The following applies: chlorocebus sabaeus.
Data set [4] has as its system SARS-CoV-2. The data set is described as follows: Antiviral activity against SARS-CoV-2 C-Tan-nCoV Wuhan strain 01 infected in African green monkey Vero cells assessed as inhibition of viral replication measured after 48 hrs by RT-qPCR method. It counts as functional, organism-based. The following applies: Severe acute respiratory syndrome coronavirus 2, C-Tan-nCoV Wuhan strain 01, Vero. Background: Real-time PCR tracks product formation cycle by cycle.

For data set [5], the system named is SARS-CoV-2. The experiment in a line: Antiviral activity against SARS-CoV-2 C-Tan-nCoV Wuhan strain 01 virus infected in Hamster rat assessed as widening of alveolar septum at 5 mg/kg, inh administered for 3 days starting from 1 hr post infection and measured on day 4 by histopathological analysis. The following applies: Severe acute respiratory syndrome coronavirus 2, time 4.0 day. In kind it is functional, organism-based.

Data set [6] has as its system SARS-CoV-2. The experiment in a line: Antiviral activity against SARS-CoV-2 C-Tan-nCoV Wuhan strain 01 virus infected in Hamster rat assessed as infiltration of neutrophils at 5 mg/kg, inh administered for 3 days starting from 1 hr post infection and measured on day 4 by histopathological analysis. In kind it is functional, organism-based. To be noted: Severe acute respiratory syndrome coronavirus 2, time 4.0 day.

The subject of data set [7] is SARS-CoV-2. The data set is described as follows: Antiviral activity against SARS-CoV-2 C-Tan-nCoV Wuhan strain 01 virus infected in Hamster rat assessed as infiltration of lymphocytes at 5 mg/kg, inh administered for 3 days starting from 1 hr post infection and measured on day 4 by histopathological analysis. It counts as functional, organism-based. To be noted: Severe acute respiratory syndrome coronavirus 2, time 4.0 day.

Data set [8] relates to SARS-CoV-2. The experiment in a line: Antiviral activity against SARS-CoV-2 C-Tan-nCoV Wuhan strain 01 virus infected in Hamster rat assessed as widening of perivascular interstitium at 5 mg/kg, inh administered for 3 days starting from 1 hr post infection and measured on day 4 by histopathological analysis. In kind it is functional, organism-based. To be noted: Severe acute respiratory syndrome coronavirus 2, time 4.0 day.

Data set [9] concerns SARS-CoV-2. The data set is described as follows: Antiviral activity against SARS-CoV-2 C-Tan-nCoV Wuhan strain 01 virus infected in Hamster rat assessed as widening of bronchus at 5 mg/kg, inh administered for 3 days starting from 1 hr post infection and measured on day 4 by histopathological analysis. It counts as functional, organism-based. To be noted: Severe acute respiratory syndrome coronavirus 2, time 4.0 day.

A short description of data set [10]: Toxicity in Hamster rat infected with SARS-CoV-2 C-Tan-nCoV Wuhan strain 01 assessed as body weight loss at 25 mg/kg, inh measured after 4 days. It counts as organism-based. The following applies: in vivo, inhaled_or_intranasal, 96 h, time 4 day.
Data set [11] relates to SARS-CoV-2. The experiment in a line: Antiviral activity against SARS-CoV-2 C-Tan-nCoV Wuhan strain 01 virus infected in Hamster rat assessed as widening of perivascular interstitium at 25 mg/kg, inh administered for 3 days starting from 1 hr post infection and measured on day 4 by histopathological analysis. In kind it is functional, organism-based. To be noted: Severe acute respiratory syndrome coronavirus 2, time 4.0 day.

Data set [12] has as its system SARS-CoV-2. The data set is described as follows: Antiviral activity against SARS-CoV-2 C-Tan-nCoV Wuhan strain 01 virus infected in Hamster rat assessed as infiltration of lymphocytes at 25 mg/kg, inh administered for 3 days starting from 1 hr post infection and measured on day 4 by histopathological analysis. The following applies: Severe acute respiratory syndrome coronavirus 2, time 4.0 day. In kind it is functional, organism-based.

Data set [13] deals with SARS-CoV-2. The experiment in a line: Antiviral activity against SARS-CoV-2 C-Tan-nCoV Wuhan strain 01 virus infected in Hamster rat assessed as widening of alveolar septum at 25 mg/kg, inh administered for 3 days starting from 1 hr post infection and measured on day 4 by histopathological analysis. To be noted: Severe acute respiratory syndrome coronavirus 2, time 4.0 day. In kind it is functional, organism-based.

The subject of data set [14] is SARS-CoV-2. The experiment in a line: Antiviral activity against SARS-CoV-2 C-Tan-nCoV Wuhan strain 01 virus infected in Hamster rat assessed as widening of bronchus at 25 mg/kg, inh administered for 3 days starting from 1 hr post infection and measured on day 4 by histopathological analysis. It counts as functional, organism-based. To be noted: Severe acute respiratory syndrome coronavirus 2, time 4.0 day.

In data set [15] the test system is SARS-CoV-2. The experiment in a line: Antiviral activity against SARS-CoV-2 C-Tan-nCoV Wuhan strain 01 virus infected in Hamster rat assessed as infiltration of neutrophils at 25 mg/kg, inh administered for 3 days starting from 1 hr post infection and measured on day 4 by histopathological analysis. It counts as functional, organism-based. The following applies: Severe acute respiratory syndrome coronavirus 2, time 4.0 day.

Active and inactive are the calls of the source. The calls are words filed in the database; no cut-off is given here.

As a reminder, the CC50 is the concentration at which the toxic effect on the cells reaches its halfway point. Broadly, the EC50 is the concentration needed to bring the measured effect to its halfway point.

As to `COc1cc2c3c(c4cc(OC)c(OC)cc4c2cc1OC)CN1CCC[C@H]1C3.O=C(O)C[C@@H](O)C(=O)O`, the selectivity ratio in data set [1] came out at 268. In addition, the Activity entry in data set [2] is on record as “Non-Toxic”. The molecule further yielded a CC50 in data set [3] of 26200 nM. Moreover, the EC50 with SARS-CoV-2 [4] stood at 30 nM.
With `CCC(CC)COC(=O)[C@H](C)N[P@](=O)(OC[C@H]1O[C@@](C#N)(c2ccc3c(N)ncnn23)[C@H](O)[C@@H]1O)Oc1ccccc1` [REMDESIVIR], the result in the data set with SARS-CoV-2 [5], with SARS-CoV-2 [6], in the data set on SARS-CoV-2 [7], with SARS-CoV-2 [8], in the data set on SARS-CoV-2 [9] and in the data set on SARS-CoV-2 [11] was Active. Besides, the result with SARS-CoV-2 [12], with SARS-CoV-2 [13], in the data set with SARS-CoV-2 [14] and in the data set with SARS-CoV-2 [15] was Active. Moreover, in data set [10], the Activity entry is reported as “Non-Toxic”. Also, the EC50 in the data set with SARS-CoV-2 [4] is 800 nM.
